Laboratory results as given in patent publication US20140171316A1, “ANTHRANILAMIDE COMPOUNDS AND THEIR USE AS PESTICIDES” (BASF SE, priority 2011, published 2014).

What was measured:
Assay type in all cases: in vivo
Megoura viciae = test: Vetch aphid (Megoura viciae) broad bean leaf disk test; conditions: foliar, 120 h, sprayed broad bean leaf disks, adult aphids, 5 days, read-out: mortality in comparison with untreated controls
Description: For evaluating control of vetch aphid (Megoura viciae) through contact or systemic means the test unit consisted of 24-well-microtiter plates containing broad bean leaf disks.
The compounds were formulated using a solution containing 75% v/v water and 25% v/v DMSO. Different concentrations of formulated compounds were sprayed onto the leaf disks at 2.5 μl, using a custom built micro atomizer, at two replications.
After application, the leaf disks were air-dried and 5-8 adult aphids placed on the leaf disks inside the microtiter plate wells. The aphids were then allowed to suck on the treated leaf disks and incubated at about 23±1° C. and about 50±5% relative humidity for 5 days. Aphid mortality and fecundity was then visually assessed.

Myzus persicae = test: Green peach aphid (Myzus persicae) spray test on bell pepper plants; conditions: 120 h, sprayed infested bell pepper plants, after 5 days, read-out: mortality in comparison with untreated controls
Excerpt: The active compounds were formulated in cyclohexanone as a 10,000 ppm solution supplied in tubes. The tubes were inserted into an automated electrostatic sprayer equipped with an atomizing nozzle and they served as stock solutions for which lower dilutions were made in 50% acetone:50% water (v/v). A nonionic surfactant (Kinetic®) was included in the solution at a volume of 0.01% (v/v).
Bell pepper plants at the first true-leaf stage were infested prior to treatment by placing heavily infested leaves from the main colony on top of the treatment plants. Aphids were allowed to transfer overnight to accomplish an infestation of 30-50 aphids per plant and the host leaves were removed. The infested plants were then sprayed by an automated electrostatic plant sprayer equipped with an atomizing spray nozzle. The plants were dried in the sprayer fume hood, removed, and then maintained in a growth room under fluorescent lighting in a 24-hr photoperiod at about 25° C. and about 20-40% relative humidity. Aphid mortality on the treated plants, relative to mortality on untreated control plants, was determined after 5 days.

Ceratitis capitata = test: Mediterranean fruitfly (Ceratitis capitata) microtiter plate insect diet test; conditions: 120 h, sprayed onto insect diet, 5 days, read-out: mortality in comparison with untreated controls (egg and larval mortality)
Description: For evaluating control of Mediterranean fruitfly (Ceratitis capitata) the test unit consisted of microtiter plates containing an insect diet and 50-80 C. capitata eggs.
The compounds were formulated using a solution containing 75% v/v water and 25% v/v DMSO. Different concentrations of formulated compounds were sprayed onto the insect diet at 5 μl, using a custom built micro atomizer, at two replications.
(§1) After application, microtiter plates were incubated at about 28±1° C. and about 80±5% relative humidity for 5 days. Egg and larval mortality was then visually assessed.

Heliothis virescens = test: Tobacco budworm (Heliothis virescens) microtiter plate insect diet test; conditions: 120 h, sprayed onto insect diet, 5 days, read-out: mortality in comparison with untreated controls (egg and larval mortality)
Description: For evaluating control of tobacco budworm (Heliothis virescens) the test unit consisted of 96-well-microtiter plates containing an insect diet and 15-25 H. virescens eggs.
The compounds were formulated using a solution containing 75% v/v water and 25% v/v DMSO. Different concentrations of formulated compounds were sprayed onto the insect diet at 10 μl, using a custom built micro atomizer, at two replications.
as §1

Dichromothrips corbetti = test: Orchid thrips (Dichromothrips corbetti) floral-immersion test; conditions: dipped orchid flowers, adult thrips, 72 hours after treatment, read-out: mortality in comparison with untreated controls
Description: Dichromothrips corbetti adults used for bioassay were obtained from a colony maintained continuously under laboratory conditions. For testing purposes, the test compound was diluted in a 1:1 mixture of acetone:water (vol:vol), plus 0.01% vol/vol Alkamuls® EL 620 surfactant.
Thrips potency of each compound was evaluated by using a floral-immersion technique. Plastic petri dishes were used as test arenas. All petals of individual, intact orchid flowers were dipped into treatment solution and allowed to dry. Treated flowers were placed into individual petri dishes along with about 20 adult thrips. The petri dishes were then covered with lids. All test arenas were held under continuous light and a temperature of about 28° C. for duration of the assay. After 3 days, the numbers of live thrips were counted on each flower, and along inner walls of each petri dish. The percent mortality was recorded 72 hours after treatment.

Aphis craccivora = test: Cowpea aphid (Aphis craccivora) spray test on potted cowpea plants; conditions: sprayed cowpea plants, assessed after 72 hours, read-out: mortality in comparison with untreated controls
Description: The active compound was dissolved at the desired concentration in a mixture of 1:1 (vol:vol) distilled water:acetone. Surfactant (Alkamuls® EL 620) is added at a rate of 0.1% (vol/vol). The test solution was prepared at the day of use.
Potted cowpea plants were colonized with approximately 50-100 aphids of various stages by manually transferring a leaf tissue cut from infested plant 24 hours before application. Plants were sprayed after the pest population has been recorded. Treated plants were maintained on light carts at about 28° C. Percent mortality was assessed after 72 hours.

Anthonomus grandis = test: Boll weevil (Anthonomus grandis) microtiter plate insect diet test; conditions: 120 h, sprayed onto insect diet, 5 days, read-out: mortality in comparison with untreated controls (egg and larval mortality)
Description: For evaluating control of boll weevil (Anthonomus grandis) the test unit consisted of 24-well-microtiter plates containing an insect diet and 20-30 A. grandis eggs.
The compounds were formulated using a solution containing 75% v/v water and 25% v/v DMSO. Different concentrations of formulated compounds were sprayed onto the insect diet at 20 μl, using a custom built micro atomizer, at two replications.
After application, microtiter plates were incubated at about 23±1° C. and about 50±5% relative humidity for 5 days. Egg and larval mortality was then visually assessed.

CNC(=O)c1cc(/C=N/OC)cc(C)c1NC(=O)c1cnn(CC(F)(F)F)c1-c1ncccc1Cl [Compound 1-1, 5-(3-chloro-2-pyridyl)-N-[4-[(E)-methoxyiminomethyl]-2-methyl-6-(methylcarbamoyl)phenyl]-1-(2,2,2-trifluoroethyl)pyrazole-4-carboxamide]
> 75%: mortality at 2500 ppm (Megoura viciae) | mortality at 2500 ppm (Myzus persicae) | mortality at 2500 ppm (Ceratitis capitata) | mortality at 2500 ppm (Heliothis virescens) | mortality at 500 ppm (Dichromothrips corbetti) | mortality at 500 ppm (Aphis craccivora) | mortality at 2500 ppm (Anthonomus grandis)

CNC(=O)c1cc(-n2cncn2)cc(C)c1NC(=O)c1cnn(CC(F)(F)F)c1-c1ncccc1Cl [Compound 1-2, 5-(3-chloro-2-pyridyl)-N-[2-methyl-6-(methylcarbamoyl)-4-(1,2,4-triazol-1-yl)phenyl]-1-(2,2,2-trifluoroethyl)pyrazole-4-carboxamide]
> 75%: mortality at 2500 ppm (Megoura viciae) | mortality at 2500 ppm (Myzus persicae) | mortality at 2500 ppm (Ceratitis capitata) | mortality at 2500 ppm (Heliothis virescens) | mortality at 500 ppm (Dichromothrips corbetti) | mortality at 500 ppm (Aphis craccivora) | mortality at 2500 ppm (Anthonomus grandis)
